Consider two molecules from US7015351B2, “Reaction systems for making N-(phosphonomethyl) glycine compounds” (Monsanto Technology LLC, priority 2000, dated 2006).

For data set [1] the following is noted: cited from earlier work.
A short description of data set [2]: Solubility of N-(phosphonomethyl)glycine product in water / aqueous reaction mixture. Format: physicochemical. Conditions: oxidation operating temperatures from about 95 to about 105° C.

In the case of `O=C(O)CNCP(=O)(O)O` [N-(phosphonomethyl)glycine], the “maximum N-(phosphonomethyl)glycine solubility” value in data set [1] (aqueous reaction mixture, temperatures of from about 60° C. to 90° C.) was “less than 6.5%”.
For `CC(C)N.O=C(O)CNCP(=O)(O)O` [isopropylamine salt of N-(phosphonomethyl)glycine], the “concentration at which the product remains soluble” value in data set [2] is recorded as not below 50 % by weight. Moreover, the “solubility relative to the free acid” value in data set [1] (at 25° C.) is “roughly 40 times”.
